From patent EP1267826B1, “PHARMACEUTICAL COMPOSITION FOR TREATMENT OF MUCOSAL EPITHELIAL ULCERATION AND/OR EROSION” (LIF-HLAUP EHF. BIO-GELS PHARMACEUTICALS INC., priority 1999, dated 2001)
Values joined by “and” are separate entries in the source; they are usually repeats but may differ in a detail not shown here. Equal entries are not always repeated.

Tests used:
[1] = test system: MMP's; details: literature (Burns et al. 1989; Gabler et al. 1991); cited from earlier work
[2] = target: T1, MMP-2 (Homo sapiens, UniProt P08253); assay: Zymography, inhibition of gelatinolytic activity; format: biochemical; details: MMP-2 acquired from HT-1080; result determined visually; read-out: concentration at which complete inhibition was achieved
T1 construct: known to secrete a large amount of several matrix-degrading enzymes, among which are MMP-2 and MMP-9; endogenous in cells; host or cells: HT-1080 human fibrosarcoma cells (secreted enzyme)
T1 sequence (P08253 110-660): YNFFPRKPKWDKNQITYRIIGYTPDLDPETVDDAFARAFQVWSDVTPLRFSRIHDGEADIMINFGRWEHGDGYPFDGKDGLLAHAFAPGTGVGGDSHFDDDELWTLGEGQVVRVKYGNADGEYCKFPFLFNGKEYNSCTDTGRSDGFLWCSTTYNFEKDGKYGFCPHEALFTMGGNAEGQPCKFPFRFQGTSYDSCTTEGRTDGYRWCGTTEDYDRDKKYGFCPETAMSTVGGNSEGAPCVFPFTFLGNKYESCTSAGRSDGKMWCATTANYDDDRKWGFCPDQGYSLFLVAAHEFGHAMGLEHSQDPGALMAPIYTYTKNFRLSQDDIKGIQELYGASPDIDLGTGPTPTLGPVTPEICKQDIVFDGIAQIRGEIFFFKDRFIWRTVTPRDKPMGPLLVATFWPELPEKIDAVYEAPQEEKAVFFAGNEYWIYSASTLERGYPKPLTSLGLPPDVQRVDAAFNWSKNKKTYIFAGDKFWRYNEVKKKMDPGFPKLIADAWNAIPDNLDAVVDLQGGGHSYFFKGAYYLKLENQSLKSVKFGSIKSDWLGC
From the text: (§1) In checking the inhibition of the doxycycline on MMP's a Zymography method was used (Mackay et al., Cancer Res., 50(18), 5997-6001, 1990).
(§2) Cell culture: HT-1080 is human fibrosarcoma cell line which is known to secrete a large amount of several matrix-degrading enzymes, among which are MMP-2 and MMP-9 (Kawamata et al., International Journal of Oncology, 13, 699-704, 1998).

[3] = target: T2, MMP-9 (Homo sapiens, UniProt P14780); assay: Zymography, inhibition of gelatinolytic activity; format: biochemical; details: MMP-9 acquired from HT-1080; result determined visually; read-out: concentration at which complete inhibition was achieved
T2 construct: known to secrete a large amount of several matrix-degrading enzymes, among which are MMP-2 and MMP-9; endogenous in cells; host or cells: HT-1080 human fibrosarcoma cells (secreted enzyme)
T2 sequence (P14780 94-707): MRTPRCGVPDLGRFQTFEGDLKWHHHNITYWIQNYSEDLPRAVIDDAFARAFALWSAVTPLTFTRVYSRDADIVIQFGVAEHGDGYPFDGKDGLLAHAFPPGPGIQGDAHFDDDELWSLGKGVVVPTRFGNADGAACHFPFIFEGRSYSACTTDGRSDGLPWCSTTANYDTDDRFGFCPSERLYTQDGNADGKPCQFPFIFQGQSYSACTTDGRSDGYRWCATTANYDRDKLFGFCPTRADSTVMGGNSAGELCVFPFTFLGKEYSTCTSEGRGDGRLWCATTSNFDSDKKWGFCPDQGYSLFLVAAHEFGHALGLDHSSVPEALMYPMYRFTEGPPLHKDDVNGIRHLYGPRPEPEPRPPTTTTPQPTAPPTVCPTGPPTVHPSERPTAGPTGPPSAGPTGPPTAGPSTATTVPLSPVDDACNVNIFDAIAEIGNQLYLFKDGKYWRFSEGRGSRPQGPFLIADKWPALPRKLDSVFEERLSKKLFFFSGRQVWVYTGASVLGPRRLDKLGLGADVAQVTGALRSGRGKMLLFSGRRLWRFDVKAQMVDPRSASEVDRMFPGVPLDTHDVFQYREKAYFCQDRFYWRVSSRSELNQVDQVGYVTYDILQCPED
From the text: as §1, §2

IC100 [2] | IC100 [3] | Structure (SMILES) | inhibition of the MMP's (in words) [1]
– | – | CCN(CC)CCCCCCCCOC(=O)c1cc(OC)c(OC)c(OC)c1 [TMB-8] | have shown inhibition of MMP's
100 µM and 48 µg/mL | 50 µM and 24 µg/mL | C[C@H]1c2cccc(O)c2C(=O)C2=C(O)[C@]3(O)C(=O)C(C(N)=O)=C(O)[C@@H](N(C)C)[C@@H]3[C@@H](O)[C@@H]21 [doxycycline] | –
– | – | O=C(O)CN(CCN(CC(=O)O)CC(=O)O)CC(=O)O [EDTA] | have shown inhibition of MMP's
